Test: recombinant UMI read abundance after kanamycin selection (control-corrected) (log10(CPM+1)); higher = more efficient recombination; extreme values may be limits of the assay; sequences stand for … in AGTGCAGAGAAAATCGGCCAGTTTTCTCTGCCTGCAGTCCGCATGCCGTGGGACCCCTTGGGTTCTAACCTGTTGCCTAGATTTATGCAGCGGACTGCCTTTCTCCCAAAGTGATAAACCGG…AGGTTGGTTTCACT; site = the 11-nt donor
Procedure, shortened: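 Reported values are log10(CPM+1) from a pooled Escherichia coli screen of donor and donor-binding-loop pairs for the IS621 bridge recombinase. Selection used IPTG (0.07 mM) plus kanamycin, against unselected plating, each in two replicates. Recombinant UMIs were amplified across the donor–target junction, sequenced, converted to CPM, averaged over replicates and scaled by control-derived factors.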
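Note: IS621 bridge recombinase in Escherichia coli cells against a fixed T5 target plasmid.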

Point of comparison: “AAGCACGCATGGACCGGTTTTCCCGGTAATCCGTATTTGGG (site AAGGACGCTCC)”, “recombinant UMI read abundance (log10)” value 0.00889. Against it:
- ATACCCACATGGACCGGTTTTCCCGGTAATCCGTATTTGAC (site ATACCCACTGT) — higher, 2.65
- GCGAAGCCATGGACCGGTTTTCCCGGTAATCCGTATTTGTG (site GCGAAGCCTCT) — higher, 1.98
- ACTAGTACATGGACCGGTTTTCCCGGTAATCCGTATTTGGT (site ACTAGTACTAC) — higher, 1.19
- TGAGTAGCATGGACCGGTTTTCCCGGTAATCCGTATTTGTA (site TGAGTAGCTTA) — higher, 2.48
- ACACGAACATGGACCGGTTTTCCCGGTAATCCGTATTTGTA (site ACACGAACTCA) — higher, 0.747
- CGCTACACATGGACCGGTTTTCCCGGTAATCCGTATTTGCT (site CACTACACTAG) — higher, 1.32
- GGTTCAACATGGACCGGTTTTCCCGGTAATCCGTATTTGTA (site GGTCCAACTTA) — higher, 0.262
- TCCAATTCATGGACCGGTTTTCCCGGTAATCCGTATTTGCC (site TCCAATCCTGG) — within 0.2 log units, 0
- CCCAAATCATGGACCGGTTTTCCCGGTAATCCGTATTTGTC (site CCCAAATCTGA) — higher, 1.93
- GGTGCGTCATGGACCGGTTTTCCCGGTAATCCGTATTTGTT (site GGTCCGTCTAA) — within 0.2 log units, 0.0208
- CAAGTCGCATGGACCGGTTTTCCCGGTAATCCGTATTTGGG (site CAAGTCTCTCC) — higher, 1.46
- CCAGTATCATGGACCGGTTTTCCCGGTAATCCGTATTTGAC (site CCAGTATCTGT) — higher, 0.685
- CTGGAAACATGGACCGGTTTTCCCGGTAATCCGTATTTGGA (site CTGGAAACTTC) — higher, 1.89
- TGTTCCCCATGGACCGGTTTTCCCGGTAATCCGTATTTGTA (site TGTTTCCCTTA) — higher, 0.381
- CGATCAGCATGGACCGGTTTTCCCGGTAATCCGTATTTGTT (site CGATCAGCTAA) — higher, 1.59
- GTCCGAGCATGGACCGGTTTTCCCGGTAATCCGTATTTGCA (site GTTCGAGCTTG) — within 0.2 log units, 0
- CTTGTATCATGGACCGGTTTTCCCGGTAATCCGTATTTGAC (site CTAGTATCTGT) — within 0.2 log units, 0
- GTAACGCCATGGACCGGTTTTCCCGGTAATCCGTATTTGGT (site GTAACGCCTAC) — higher, 0.517
- CTCGGGCCATGGACCGGTTTTCCCGGTAATCCGTATTTGTG (site CTCGGGCCTCA) — within 0.2 log units, 0
- AATCTCTCATGGACCGGTTTTCCCGGTAATCCGTATTTGGC (site AATCTCTCTGC) — higher, 2.62
- GGGCCGTCATGGACCGGTTTTCCCGGTAATCCGTATTTGTA (site GGGCCGTCTTA) — higher, 0.733
- CGATCGCCATGGACCGGTTTTCCCGGTAATCCGTATTTGTT (site CGATCGCCTAA) — within 0.2 log units, 0.142
- GCAACTGCATGGACCGGTTTTCCCGGTAATCCGTATTTGGC (site GCAACTGCTGC) — higher, 1.95
- GGCAATTCATGGACCGGTTTTCCCGGTAATCCGTATTTGAA (site GGCAATCCTTT) — within 0.2 log units, 0.0153
- TGTACACCATGGACCGGTTTTCCCGGTAATCCGTATTTGAC (site TGGACACCTGT) — within 0.2 log units, 0.00576
- CCGTTTACATGGACCGGTTTTCCCGGTAATCCGTATTTGAT (site CCGTTTACTAT) — within 0.2 log units, 0
- ACCAAGACATGGACCGGTTTTCCCGGTAATCCGTATTTGGG (site ACCTAGACTCC) — within 0.2 log units, 0.0189
- GCCGCGGCATGGACCGGTTTTCCCGGTAATCCGTATTTGGA (site GCCGCGGCTTC) — higher, 0.468
- CGAAATTCATGGACCGGTTTTCCCGGTAATCCGTATTTGTT (site CGGAATCCTAA) — within 0.2 log units, 0
- AGACTAGCATGGACCGGTTTTCCCGGTAATCCGTATTTGTT (site AGGCTAGCTAA) — within 0.2 log units, 0.0149
- ATGTAGCCATGGACCGGTTTTCCCGGTAATCCGTATTTGGC (site ATGTAGGCTGC) — within 0.2 log units, 0
- CGGCTACCATGGACCGGTTTTCCCGGTAATCCGTATTTGCT (site CTGCTACCTAG) — within 0.2 log units, 0
- AGGACTACATGGACCGGTTTTCCCGGTAATCCGTATTTGCC (site AGGACTACTGA) — within 0.2 log units, 0
- AAGCACGCATGGACCGGTTTTCCCGGTAATCCGTATTTGGA (site AAGCACGCTGC) — within 0.2 log units, 0
- AGGGTGACATGGACCGGTTTTCCCGGTAATCCGTATTTGCA (site AGGGTGACTTG) — higher, 2.63
- AAGCACGCATGGACCGGTTTTCCCGGTAATCCGTATTTGGG (site AAGCACGCTAC) — within 0.2 log units, 0.0125
- CCCTAGCCATGGACCGGTTTTCCCGGTAATCCGTATTTGCG (site CCCTAGCCTGG) — within 0.2 log units, 0
- TTAGCTGCATGGACCGGTTTTCCCGGTAATCCGTATTTGAG (site TTAGCTGCTCC) — within 0.2 log units, 0.0699
- GTGCATGCATGGACCGGTTTTCCCGGTAATCCGTATTTGGT (site GTCCATGCTAC) — within 0.2 log units, 0.00812
- AGGAAGACATGGACCGGTTTTCCCGGTAATCCGTATTTGCC (site AGGAAGACTTG) — higher, 1.8
- ACTAGAACATGGACCGGTTTTCCCGGTAATCCGTATTTGCG (site ACTAGAACTCC) — within 0.2 log units, 0.0147
- CAGCCGACATGGACCGGTTTTCCCGGTAATCCGTATTTGGG (site CAGTCGACTCC) — within 0.2 log units, 0.00469
- TAGTGATCATGGACCGGTTTTCCCGGTAATCCGTATTTGCA (site TAGTGATCTTG) — higher, 3.02
- AATCCATCATGGACCGGTTTTCCCGGTAATCCGTATTTGAT (site AATCCATCTAT) — higher, 0.288
- CCCTAGCCATGGACCGGTTTTCCCGGTAATCCGTATTTGAC (site CCCTAGCCTGA) — within 0.2 log units, 0
- TGCTAGGCATGGACCGGTTTTCCCGGTAATCCGTATTTGGT (site TGCTAGGCTGC) — within 0.2 log units, 0.0103
- TGTACACCATGGACCGGTTTTCCCGGTAATCCGTATTTGAC (site TGTACTCCTGT) — within 0.2 log units, 0
- GAATATCCATGGACCGGTTTTCCCGGTAATCCGTATTTGCT (site GAGTATCCTAG) — within 0.2 log units, 0
- GCAGTCTCATGGACCGGTTTTCCCGGTAATCCGTATTTGCA (site GCAGTCTCTTG) — higher, 2.87
- GTATGCACATGGACCGGTTTTCCCGGTAATCCGTATTTGCA (site GTATGCACTTG) — higher, 2.67
- GGATGAACATGGACCGGTTTTCCCGGTAATCCGTATTTGTT (site GGATGAACTAA) — higher, 1.78
- CTATGTTCATGGACCGGTTTTCCCGGTAATCCGTATTTGTC (site CTATGTTCTGA) — higher, 2.29
- TAGGAATCATGGACCGGTTTTCCCGGTAATCCGTATTTGCG (site TAGGAATCTCG) — higher, 2.72
- TAGGAATCATGGACCGGTTTTCCCGGTAATCCGTATTTGCG (site AAGGAATCTCG) — higher, 2.07
- GGGGCACCATGGACCGGTTTTCCCGGTAATCCGTATTTGCA (site GGGGCTCCTTG) — within 0.2 log units, 0
- GTCTACACATGGACCGGTTTTCCCGGTAATCCGTATTTGAG (site GTCTACACTCT) — higher, 0.832
- AAGCACGCATGGACCGGTTTTCCCGGTAATCCGTATTTGGG (site AAGCACTCTCC) — within 0.2 log units, 0.0617
- CACTTGGCATGGACCGGTTTTCCCGGTAATCCGTATTTGCT (site CACTTGGCTAG) — within 0.2 log units, 0
- CCGCTTTCATGGACCGGTTTTCCCGGTAATCCGTATTTGAG (site CCGCTTTCTCT) — within 0.2 log units, 0.19
- AGCTCAGCATGGACCGGTTTTCCCGGTAATCCGTATTTGTG (site AGCTCAGCTCA) — higher, 0.506
- TGTTCCCCATGGACCGGTTTTCCCGGTAATCCGTATTTGTA (site TGTTCCCCTAA) — within 0.2 log units, 0.0105
- GCTACTACATGGACCGGTTTTCCCGGTAATCCGTATTTGCC (site GCTACTTCTGG) — within 0.2 log units, 0
- AGCCAAGCATGGACCGGTTTTCCCGGTAATCCGTATTTGTT (site AGCCCAGCTAA) — within 0.2 log units, 0.0145
- TAAAATACATGGACCGGTTTTCCCGGTAATCCGTATTTGCA (site TATAATACTTG) — higher, 0.614
- GGCAATCCATGGACCGGTTTTCCCGGTAATCCGTATTTGCA (site GGCAATCCTTC) — within 0.2 log units, 0.0145
- AGCTCGACATGGACCGGTTTTCCCGGTAATCCGTATTTGGC (site AGCTCGACTGC) — higher, 1.31
- GTGACAACATGGACCGGTTTTCCCGGTAATCCGTATTTGAC (site GTGACAACTGT) — higher, 2.91
- TATTTGGCATGGACCGGTTTTCCCGGTAATCCGTATTTGTG (site TCTTTGGCTCA) — within 0.2 log units, 0.00921
- TGTCACCCATGGACCGGTTTTCCCGGTAATCCGTATTTGGC (site TGTCACCCTGC) — within 0.2 log units, 0
- GTTGTTCCATGGACCGGTTTTCCCGGTAATCCGTATTTGGA (site GTTGTTCCTCC) — within 0.2 log units, 0.00995
- CGATCGACATGGACCGGTTTTCCCGGTAATCCGTATTTGAT (site CGATCGACTAC) — within 0.2 log units, 0
- GTATGCACATGGACCGGTTTTCCCGGTAATCCGTATTTGTA (site GGATGCACTTA) — higher, 0.58
- CAGGGGTCATGGACCGGTTTTCCCGGTAATCCGTATTTGTA (site CAGGGGTCTTA) — higher, 3.37
- GCTTGCCCATGGACCGGTTTTCCCGGTAATCCGTATTTGGT (site GCTTGCCCTAT) — within 0.2 log units, 0
